Results taken from patent publication US20050112562A1, “Inhibition of retroviral replication through modulation of the host cell ubiquitylation” (Rigel Pharmaceuticals, Inc., priority 2003, published 2005).
Where a SMILES comes first, the peptide text is derived from it. [ ]: non-standard residue; d: D form. The star is where a group is joined. Nle = CCCC[C@H](N)C(=O)O; Cbz = O=C(OCc1ccccc1)*

Legend:
Format in all cases: cell-based
[1] = tested on: vif-mediated degradation of the luciferase/apobec3G fusion protein; assay: transient luciferase/apobec3G fusion reporter with co-introduced vif construct (chemiluminescence, western blot); conditions: Phoenix and HeLa cells; band in final lane of each western blot
From the text: A construct encoding a luciferase/apobec3G fusion protein was introduced into Phoenix and HeLa cells and transient expression of the luciferase/apobec3G fusion protein was monitored by detecting chemiluminescence. Results were normalized to the number of cells assayed. […] The gels shown at the top of both FIGS. 3A and 3B show results obtained from western blots of cell extracts using antibodies. Tesults obtained using anti-apobec3G and anti-lactate dehydrogenase antibodies are indicated as “3G” and “LDH”, respectively.
This phenomenon is inhibited by adding MG132, a known inhibitor of proteosome-mediated protein degradation (see the band observed in the final lane of each of the western blots). Cells containing both vif and a luciferase/apobec3G reporter can therefore be used to test agents for vif-inhibitory activity.

[2] = tested on: vif-mediated degradation of the luciferase/apobec3G fusion protein in HeLa cells; assay: co-transfection of luciferase/apobec3G and vif constructs at varied ratios, luciferase activity (FIG. 4); conditions: for luciferase activity: 10 μM or 20 μM inhibitor, luciferase/apobec3G:vif 50:1 (tested 2:1, 25:1, 50:1, 100:1)
Method: Cells were co-transfected with the luciferase/apobec3G and vif constructs at relative concentrations of 2:1, 25:1, 50:1 and 100:1 (luciferase/apobec3G:vif) in the presence or absence of 10 μM or 20 μM MG132 or ALLN, known inhibitors of proteosome-mediated protein degradation.

vif activity = assay: vif expressed from different vectors with luciferase/apobec3G in a cell (FIGS. 5A-5E); conditions: vif from pCMV, pcDNA6, pcDNA6 CTE, pEF6, pEF6 CTE constructs

Structure (SMILES) | vif-caused decrease in luciferase activity / degradation of the luciferase/apobec3G fusion protein [1] | luciferase activity [2] | activity of an apobec3G-luciferase fusion ([2]; in the presence of apobec3G/vif in HeLa cells (FIG. 4 legend)) | modulation of vif activity (vif activity)
CC(C)C[C@@H](C=O)NC(=O)[C@H](CC(C)C)NC(=O)[C@H](CC(C)C)NC(=O)OCc1ccccc1 [MG132] (Cbz-Leu-Leu-Leu-aldehyde) | inhibited | maximally increased luciferase activity | increased activity | could be modulated
CCCC[C@@H](C=O)NC(=O)[C@H](CC(C)C)NC(=O)[C@H](CC(C)C)NC(C)=O [ALLN] (Ac-Leu-Leu-[Nle]-aldehyde) | – | maximally increased luciferase activity | – | –
